Counter-ions that a name gives are not always drawn.
Assay: vasodilatory and cardiovascular actions in femtomol dosages, with and without blockers of the sympathetic nervous system
Format: in vivo
Conditions: blocker of the sympathetic nervous system
Description: In femtomol dosages, the peptide-amides according to the invention have a vasodilatory action and result in a reduction of the blood pressure and an increase in the heart rate and in the contractility of the myocardium. The actions are not affected by blockers of the sympathetic nervous system, for example metoprolol [1-isopropylamino-3-(4-{2-methoxyethyl}phenoxy)-propan-2-ol] and Trandate® (labetalol hydrochloride), whereas the action of noradrenalin and of adrenalin in serum is suppressed by those substances.

With `CC(CCc1ccccc1)NCC(O)c1ccc(O)c(C(N)=O)c1` (centres unmarked) [Trandate, labetalol hydrochloride] the “action of noradrenalin and of adrenalin in serum” value was “suppressed”.

In the case of `COCCc1ccc(OCC(O)CNC(C)C)cc1` (centres unmarked) [metoprolol, 1-isopropylamino-3-(4-{2-methoxyethyl}phenoxy)-propan-2-ol], the “action of noradrenalin and of adrenalin in serum” value is reported as “suppressed”.

From patent publication US4720483A, “Oligopeptides and intermediates and processes for their manufacture” (Ciba-Geigy Corporation, priority 1985, dated 1988)
